The source of these data is US20150125452A1, “COMBINATION TREATMENTS COMPRISING C-MET ANTAGONISTS AND B-RAF ANTAGONISTS” (GENENTECH, INC., priority 2011, published 2015).

Type in all cases: cell-based, Human
Assay [1] relates to kinase-addicted cancer cell lines. The assay can be described thus: RTK ligand matrix screen, Syto 60 cell viability. On the procedure:
(§1) Cell viability was assessed using the nucleic acid stain Syto 60 (Invitrogen). Cells (3000-5000 per well) were seeded into 96 well plates and allowed to adhere overnight. The next day, cells were treated with (or without) 50 ng/mL RTK ligand and concomitantly exposed to an increasing concentration range of the relevant kinase inhibitor. Following 72 hours drug exposure, cells were fixed in 4% formaldehyde, stained with Syto 60 and cell number was assessed using an Odyssey scanner (Li-Cor). Cell viability was calculated by dividing the fluorescence obtained from the drug-treated cells by the fluorescence obtained from the control (no drug) treated cells.
Cell lines. Human cancer cell lines were obtained and tested for sensitivity using an automated platform as previously described (Johannessen, C. M. et al. COT drives resistance to RAF inhibition through MAP kinase pathway reactivation. Nature 468, 968-972, doi:10.1038/nature09627 (2010)). Cell lines were maintained at 37° C. in a humidified atmosphere at 5% CO2 and grown in RPMI 1640 or DMEM/F12 growth media (GIBCO) supplemented with 10% fetal bovine serum (GIBCO), 50 units/mL penicillin and 50 μg/mL streptomycin (GIBCO).
Using 41 different human tumor-derived cell lines with previously defined kinase dependency^7-9, we undertook a “matrix analysis” to examine the effects of 6 different RTK ligands (HGF, EGF, FGF, PDGF, NRG1, IGF)—known to be widely expressed in cancer cells and tumor stroma^10—on drug response. Specifically, we quantified the effect of exposing these cancer cell lines (e.g., AU565 (HER2 amp)) to each ligand on the IC50 for a kinase inhibitor (e.g., lapatinib) that otherwise potently suppresses their growth within 72 hours (FIG. 1A). Nearly all of the kinase-dependent cancer cell lines tested, which included cells derived from multiple tissue types and with distinct kinase dependencies (EGFR, HER2, BRAF, MET, ALK, PDGFR, and FGFR), could be rescued from drug-induced growth inhibition by one or more RTK ligands, highlighting the potentially broad contribution of these ligands to the response to selective kinase inhibitors in kinase-addicted tumor cells (FIG. 1B).

Assay [2] has as its system AU565 HER2 amplified breast cancer cells. The assay can be described thus: Syto 60 viability and long-term staining with lapatinib and ligands. The method, then: FIGS. 3A-3G: HGF promoted lapatinib resistance in HER2 amplified cell lines. […] HGF rescue is indicated, black squares indicates partial rescue as determined by the initial screen (FIG. 1B). […] Cells were treated every three days for the indicated times. […] FIG. 3D, Immunoblots showing the re-activation of pAKT and pERK in two MET positive (AU565, HCC1954) and one MET negative (BT474) HER2 amplified cell lines. […] FIG. 3E, Representative slides showing MET expression in HER2 positive (3+) breast cancer tissues. FIG. 3F, selection of higher MET expressing AU565 cells following 3× treatments with lapatinib (1 μM) and HGF (50 ng/mL). FIG. 3G. […] Cells were treated twice weekly for the indicated times.
AU565 sells were co-treated with lapatinib (1 μM) in combination with 10 ng/mL NRG1 or FGF. […] Cells were treated with the appropriate kinase inhibitors in the presence of HGF (50 ng/mL). Cells were then treated with either 100 nM PI3K inhibitor (BEZ235) or MAPK inhibitor (AZD6244). Error bars represent mean+/−s.e.m.
as §1

Assay [3] concerns H358 EGF-like ligand-driven NSCLC cells. As to the kind of experiment: Syto 60 long-term staining with erlotinib and HGF. The conditions noted are these: erlotinib 5 μM, HGF 50 ng/mL, every 3 days for 9 days. The method, then:
Cells were co-treated with 50 ng/mL HGF. Error bars represent mean+/−s.e.m. […] FIG. 8C, Syto 60 staining of H2228 EML4-ALK translocated NSCLC cells treated with TAE684 (2 μM) in the presence and absence of HGF (50 ng/mL) as indicated. Cells were treated every 3 days for 9 days. FIG. 8D, Syto 60 staining of H358 EGF-like ligand-driven NSCLC cells treated with Erlotinib (5 μM) in the presence and absence of HGF (50 ng/mL) as indicated. Cells were treated every 3 days for 9 days.

Assay [4] deals with HER2-amplified breast cancer cell lines. The assay can be described thus: Syto 60 cell viability, ligand rescue from lapatinib. The conditions noted are these: 50 ng/mL ligand, 72 h. The method, then: as §1
The ability of HGF to rescue 3 of 9 tested HER2-amplified breast cancer cell lines from growth inhibition by the HER2 kinase inhibitor lapatinib was also unexpected (FIG. 3A). These 3 cell lines all express MET, and expression was well correlated with the ability of HGF to attenuate lapatinib response (FIG. 3B).

For “HGF: recombinant human RTK ligand (MET ligand) purchased from Peprotech”, the “effect of RTK ligand on conferring drug resistance to kinase inhibitors” value in assay [1] (50 ng/mL RTK ligand, 72 h, 41 cell lines) is listed as “most broadly active ligands”. In assay [1] (BRAF mutant PLX[…]-sensitive melanoma and colorectal cell lines), the “effect of HGF on response to PLX[…]” value is on record as “significantly attenuated the response”. Further, the “rescue despite activation of receptor and a downstream survival effector” value in assay [1] (H2228 and H358 cells with HGF, COLO-201 cells with NRG1) is recorded as “not sufficient to rescue cells from kinase inhibition”. For the same substance, the “MET expression of cell population after co-treatment” value in assay [2] (9-day lapatinib and HGF co-treatment) is on record as “increased MET expression”. In assay [2] (12 days, lapatinib 1 μM, HGF 50 ng/mL), the “resistance to lapatinib on longer-term co-treatment” value is given as “rapidly promoted resistance to lapatinib”. Further, in assay [3], the “effect of HGF on longer-term erlotinib treatment” value was “rescued”. For the same substance, the “number of HER2-amplified breast cancer cell lines rescued from lapatinib” value in assay [4] was 3 of 9.
